Data as given in ChEMBL document CHEMBL1157874, “Synthesis, spectroscopic and biological studies on the new symmetric Schiff base derived from 2,6-diformyl-4-methylphenol with N-aminopyrimidine” (2010).
≈ marks a conversion by molar mass, not a printed value.

Columns and labels:
Type in all cases: functional
Pichia kudriavzevii = assay: Antifungal activity against Candida krusei ATCC 6258 after 18 hrs by broth microdilution assay; settings: ATCC 6258, 18 h
Candida albicans = assay: Antifungal activity against Candida albicans ATCC 14053 after 18 hrs by broth microdilution assay; settings: ATCC 14053, 18 h
Micrococcus luteus = assay: Antibacterial activity against Micrococcus luteus ATCC 9345 after 18 hrs by broth microdilution assay; settings: ATCC 9345, 18 h
Escherichia coli = assay: Antibacterial activity against Escherichia coli ATCC 4230 after 18 hrs by broth microdilution assay; settings: ATCC 4230, 18 h
Staphylococcus aureus [1] = assay: Antibacterial activity against Staphylococcus aureus ATCC 6538 after 18 hrs by broth microdilution assay; settings: ATCC 6538, 18 h
Candida parapsilosis = assay: Antifungal activity against Candida parapsilosis ATCC 22019 after 18 hrs by broth microdilution assay; settings: Lodderomyces parapsilosis, ATCC 22019, 18 h
Staphylococcus aureus [2] = assay: Antibacterial activity against Staphylococcus aureus ATCC 25923 after 18 hrs by broth microdilution assay; settings: ATCC 25923, 18 h
Bacillus cereus = assay: Antibacterial activity against Bacillus cereus ATCC 7064 after 18 hrs by broth microdilution assay; settings: ATCC 7064, 18 h

SMILES | MIC (Pichia kudriavzevii) | MIC (Candida albicans) | MIC (Micrococcus luteus) | MIC (Escherichia coli) | MIC (Staphylococcus aureus [1]) | MIC (Candida parapsilosis) | MIC (Staphylococcus aureus [2]) | MIC (Bacillus cereus)
Cc1cc(/C=N/n2cc(C(=O)c3ccccc3)c(-c3ccccc3)nc2=O)c(O)c(/C=N/n2cc(C(=O)c3ccccc3)c(-c3ccccc3)nc2=O)c1 | 40 µg/mL (≈ 56.3 µM) | 40 µg/mL (≈ 56.3 µM) | 20 µg/mL (≈ 28.1 µM) | 40 µg/mL (≈ 56.3 µM) | 20 µg/mL (≈ 28.1 µM) | 40 µg/mL (≈ 56.3 µM) | 20 µg/mL (≈ 28.1 µM) | 80 µg/mL (≈ 113 µM)
CC1(C)S[C@@H]2[C@H](NC(=O)[C@H](N)c3ccccc3)C(=O)N2[C@H]1C(=O)O [AMPICILLIN] | – | – | 10 µg/mL (≈ 28.6 µM) | – | – | – | – | 5 µg/mL (≈ 14.3 µM)
OC(Cn1cncn1)(Cn1cncn1)c1ccc(F)cc1F [FLUCONAZOLE] | 10 µg/mL (≈ 32.7 µM) | – | – | – | – | – | – | –
